Structures can show the parent of a compound that is named as a salt.
Columns and labels:
[1] = biological target: T1, 5-Lipoxygenase enzyme from RBL-1 cells (Rattus norvegicus, UniProt P12527); experiment: RBL-1 5-lipoxygenase screen (cell free); assay type: biochemical; conditions: read-out: percentage inhibition of 5-lipoxygenase
T1 construct: prepared as a 10,000 g supernatant from RBL-1 cells; endogenous in cells; host or cells: RBL-1 cells (10,000 g supernatant)
T1 sequence (P12527 1-673): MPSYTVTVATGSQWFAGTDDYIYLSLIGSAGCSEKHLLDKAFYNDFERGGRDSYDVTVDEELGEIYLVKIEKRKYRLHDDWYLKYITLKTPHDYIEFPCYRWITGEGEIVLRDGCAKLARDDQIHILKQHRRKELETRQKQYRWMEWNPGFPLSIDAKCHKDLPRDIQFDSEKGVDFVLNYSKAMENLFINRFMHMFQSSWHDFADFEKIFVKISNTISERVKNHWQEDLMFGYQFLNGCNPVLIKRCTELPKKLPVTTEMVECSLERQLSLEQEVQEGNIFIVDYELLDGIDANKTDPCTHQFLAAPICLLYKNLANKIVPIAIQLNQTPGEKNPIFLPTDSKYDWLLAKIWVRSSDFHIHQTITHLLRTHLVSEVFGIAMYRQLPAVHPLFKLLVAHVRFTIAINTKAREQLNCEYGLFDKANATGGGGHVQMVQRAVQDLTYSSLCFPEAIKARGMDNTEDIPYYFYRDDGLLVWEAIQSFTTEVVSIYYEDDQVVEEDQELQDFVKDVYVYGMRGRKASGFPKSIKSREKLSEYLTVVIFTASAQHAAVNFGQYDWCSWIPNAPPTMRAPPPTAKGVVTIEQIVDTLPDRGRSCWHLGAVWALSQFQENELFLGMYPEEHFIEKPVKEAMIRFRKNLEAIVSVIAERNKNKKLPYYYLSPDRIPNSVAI
Protocol: RBL-1 5-LIPOXYGENASE SCREEN
5-Lipoxygenase enzyme was prepared as a 10,000 g supernatant from RBL-1 cells by the method of Jakschik [Jakschik, B. A., F. F. Sun, L. M. Lee, and M. M. Steinhoff, 1980, Biochem. Biophys. Res. Comm. 95, 103]. The 10,000 g supernatant was diluted with homogenization buffer to the equivalent of 1.5-2.5×10^7 cells. ml^-1 and made 2 mM with respect to CaCl2. Aliquots of 0.5 ml were then dispensed into tubes, and incubated at 29° C. with 5 μl ethanol or compound in ethanol at the desired concentration for 2 min. Then […] arachidonic acid was added in buffer to give a final concentration of 6.3 μM and 0.2 μCi per incubation, and the reaction continued at 29° C. for 2 min. The reaction was terminated by adding 1 ml of acetone and cooling on ice, 0.5 ml of ice-cold saline and 10 μl of 2N formic acid were added, and the mixture was extracted with 2×2 ml of chloroform. The extract was stored under N2 at -20° C. until analysis by chromatography. Activity was measured as the percentage of total radioactivity found in 5-HETE and 5,12-diHETE, and inhibition calculated as the decrease in formation of the sum of these two species in compound-treated incubates relative to control incubates.
This test is used to show inhibition of the 5-lipoxygenase enzyme in a mammalian RBL-1 cell free 5-lipoxygenase assay.

[2] = tested on: carrageenin-induced pleurisy; experiment: Carrageenin-induced pleurisy in the rat; assay type: in vivo; conditions: dose of 25 mg/kg p.o., given 1 hour before and 24 and 48 hours after carrageenin
Protocol: CARRAGEENIN-INDUCED PLEURISY IN THE RAT
This model of monocyte accumulation is based on the method of R. Vinegar, J. F. Truax, J. L. Selph and F. A. Voelker [Federation Proceeding 41, 2588-2595, 1982].
0.2 ml of a 2.0% solution of λ-carrageenin (Viscarin 402) in saline was injected intrapleurally in anaesthetised rats (wt. approx. 175-200 g). Compounds were administered 1 hour before carrageenin and at 24 and 48 hours after carrageenin. 72 hours after carrageenin injection, 4.0 ml of EDTA solution (5 g EDTA in 100 ml of 0.9% saline and 325 mg phenol red added together with saline to 1 liter) was injected intrapleurally after killing the animals, and the exudate removed with a syringe through the diaphragm. Exudate volume was measured spectrophotometrically (560 nm) and cellular content estimated with a DNA assay [Karsten U. and Wollenberger A. Anal. Biochem. 77, 464-470, 1977].
This test is used to indicate anti-inflammatory activity against carrageenin-induced pleurisy in the rat. The compound of Example 1 was active at a dose of 25 mg/kg (p.o.).

| inhibition at 1 µM ([1]; 1 μM concentration) [%] | inhibition at 20 µM ([1]; 20 μM concentration) [%] | SMILES | anti-inflammatory activity against carrageenin-induced pleurisy in the rat [2] |
| --- | --- | --- | --- |
| 93 |  | Cc1cc(C(C)(C)C)c(O)c2[nH]c(C(F)(F)F)nc12 [Example 1, 5-tert-Butyl-4-hydroxy-7-methyl-2-trifluoro-methylbenzimidazole] | active |
|  | 68 | Cc1ccc(O)c2[nH]c(C(F)(F)F)nc12 [Example 2, 4-Hydroxy-7methyl-2-trifluoromethylbenzimidazole hydrochloride hydrate (4:4:1)] |  |
